Drawing on PubChem BioAssay AID1259411 (Chemical Carcinogenesis Research Information System (CCRIS), 2018), this text covers carcinogen call for 9 compounds.

The subject of the data set is rodent carcinogenicity bioassays, tumor incidence. The data set is described as follows: CCRIS carcinogenicity studies. In short, it runs like this:
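NCI-built, expert-reviewed records of carcinogenicity and related test outcomes (mutagenicity, tumor promotion/inhibition) compiled from published and report sources, historical span 1985-2011, not updated.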

Calls of active or inactive are those of the source. How the calls were made is not given here.

On to `COC(=O)c1cc(Oc2ccc(Cl)cc2Cl)ccc1[N+](=O)[O-]`, for which the carcinogen call was “inactive; negative; purity 98.3%” (Species: Mouse, Strain/Sex: B6C3F1/Female (60/sex/group), Route: Oral, Dose: 0, 50, 200, 1000 ppm in feed for 24 mo, Dose: 0, 50, 200, 1000 ppm in feed for 24 mo); “active; positive; purity 98.3%” (Species: Mouse, Strain/Sex: B6C3F1/Male (60/sex/group), Route: Oral, Dose: 0, 50, 200, 1000 ppm in feed for 24 mo, Dose: 0, 50, 200, 1000 ppm in feed for 24 mo, Tumor Site: Type of Lesion: Liver: Significant increase in hepatic adenomas and carcinomas at highest dose); “inactive; negative; purity 98%” (Species: Rat, Strain/Sex: Sprague-Dawley/Female (50/sex/group), Route: Oral, Dose: 0, 500, 1580, 5000 ppm in feed for 104 wk, Dose: 0, 500, 1580, 5000 ppm in feed for 104 wk); “inactive; negative; purity 98%” (Species: Rat, Strain/Sex: Sprague-Dawley/Male (50/sex/group), Route: Oral, Dose: 0, 500, 1580, 5000 ppm in feed for 104 wk, Dose: 0, 500, 1580, 5000 ppm in feed for 104 wk).
As for `NC(=O)Cc1c([O-])on[n+]1Cc1ccccc1`, the carcinogen call reads like this: (Species: MOUSE, Strain/Sex: DDD/FEMALE, Route: ORAL, Dose: 0, 0.002, 0.01, 0.02% IN DRINKING WATER FOR 12 MO (STUDY DURATION: 12 MO), Dose: 0, 0.002, 0.01, 0.02% IN DRINKING WATER FOR 12 MO (STUDY DURATION: 12 MO), Tumor Site: Type of Lesion: LIVER: HEPATOCELLULAR CARCINOMA) “active; positive”; (Species: MOUSE, Strain/Sex: DDD/MALE, Route: ORAL, Dose: 0, 0.02% IN DRINKING WATER FOR 12 MO (STUDY DURATION: 12 MO)) “inactive; negative”; (Species: RAT, Strain/Sex: DONRYU/FEMALE, Route: ORAL, Dose: 0, 60, 200, 400 PPM IN DRINKING WATER FOR 41 WK (STUDY DURATION: 104 WK), Dose: 0, 60, 200, 400 PPM IN DRINKING WATER FOR 41 WK (STUDY DURATION: 104 WK), Tumor Site: Type of Lesion: LIVER: TUMOR) “active; positive”; (Species: RAT, Strain/Sex: DONRYU/MALE, Route: ORAL, Dose: 0, 20 PPM IN DIET FOR 104 WK (STUDY DURATION: 104 WK)) “inactive; negative”; (Species: RAT, Strain/Sex: DONRYU/MALE, Route: ORAL, Dose: 0, 60, 200 PPM IN DIET FOR 15 WK (STUDY DURATION: 104 WK), Dose: 0, 60, 200 PPM IN DIET FOR 15 WK (STUDY DURATION: 104 WK), Tumor Site: Type of Lesion: LIVER: TUMOR) “active; positive”; (Species: RAT, Strain/Sex: DONRYU/MALE, Route: ORAL, Dose: 0, 60 PPM IN DRINKING WATER FOR 41 WK (STUDY DURATION: 104 WK), Tumor Site: Type of Lesion: LIVER: TUMOR) “active; positive”.
For `O=[N+]([O-])c1cc2c3c(ccc2c2ccccc12)[C@H](O)[C@@H](O)C=C3`, the carcinogen call is “active; positive” (Species: MOUSE, Strain/Sex: SWISS/FEMALE, Route: INTRAPERITONEAL, Dose: 0, 100 NMOL (TOTAL DOSE) 1/7, 2/7 AND 4/7 ADMINISTERED ON DAYS 1, 8 AND 15 OF LIFE RESPECTIVELY (STUDY DURATION: 32 WK), Tumor Site: Type of Lesion: LUNG: TUMOR) and “active; positive” (Species: MOUSE, Strain/Sex: SWISS/MALE, Route: INTRAPERITONEAL, Dose: 0, 100 NMOL (TOTAL DOSE) 1/7, 2/7 AND 4/7 ADMINISTERED ON DAYS 1, 8 AND 15 OF LIFE RESPECTIVELY (STUDY DURATION: 32 WK), Tumor Site: Type of Lesion: LUNG: TUMOR, LIVER: TUMOR).
Take `CC(N)=O`: the carcinogen call (Species: RAT, Strain/Sex: WISTAR/MALE, Route: ORAL, Dose: 1.25, 2.5, 5% IN DIET FOR ONE YR, Dose: 1.25, 2.5, 5% IN DIET FOR ONE YR, Tumor Site: Type of Lesion: LIVER: TRABECULAR CARCINOMA, ADENOCARCINOMA, HEPATOMA) is “active; positive”.
Take `CC1CN(N=O)CO1` (centres undefined): the carcinogen call is “active; positive” (Species: HAMSTER, Strain/Sex: SYRIAN/MALE, Route: INTRAGASTRIC, Dose: 0, 25 MG/ML IN 0.2 ML STERILIZED WATER 1/WK FOR 24 WK (TOTAL DOSE 120 MG) (STUDY DURATION: LIFESPAN), Tumor Site: Type of Lesion: LIVER: HEPATOCELLULAR CARCINOMA, ADENOMA, HEMANGIOSARCOMA, CHOLANGIOCARCINOMA, PANCREAS: DUCTAL CARCINOMA) and “active; positive” (Species: RAT, Strain/Sex: F344/FEMALE, Route: ORAL, Dose: 40 MG/L IN DRINKING WATER FOR 50 WK, Tumor Site: Type of Lesion: LIVER: HEPATOCELLULAR CARCINOMA, HEMANGIOENDOTHELIAL SARCOMA).
For the compound `CC(=O)c1ccc(S(=O)(=O)NC(=O)NC2CCCCC2)cc1`, the carcinogen call (Species: MOUSE, Strain/Sex: B6C3F1/FEMALE, Route: ORAL, Dose: 0, 6359, 12718 PPM IN DIET, TWA, Dose: 0, 6359, 12718 PPM IN DIET, TWA) was “inactive; negative”; the carcinogen call (Species: MOUSE, Strain/Sex: B6C3F1/MALE, Route: ORAL, Dose: 0, 6359, 12718 PPM IN DIET, TWA, Dose: 0, 6359, 12718 PPM IN DIET, TWA) is “inactive; negative”; the carcinogen call (Species: RAT, Strain/Sex: F344/FEMALE, Route: ORAL, Dose: 0, 10000, 20000 PPM IN DIET, Dose: 0, 10000, 20000 PPM IN DIET) was “inactive; negative”; the carcinogen call (Species: RAT, Strain/Sex: F344/MALE, Route: ORAL, Dose: 0, 10000, 20000 PPM IN DIET, Dose: 0, 10000, 20000 PPM IN DIET) is “inactive; negative”.
As for `O=[N+]([O-])c1ccc(NCCO)c(OCCO)c1`, the carcinogen call runs as follows: (Species: MOUSE, Strain/Sex: B6C3F1/FEMALE, Route: ORAL, Dose: 0, 5000, 10000 PPM IN FEED 7 D/WK FOR 104 WK (STUDY DURATION: 2 YR), Dose: 0, 5000, 10000 PPM IN FEED 7 D/WK FOR 104 WK (STUDY DURATION: 2 YR)) “inactive; negative”; (Species: MOUSE, Strain/Sex: B6C3F1/MALE, Route: ORAL, Dose: 0, 5000, 10000 PPM IN FEED 7 D/WK FOR 104 WK (STUDY DURATION: 2 YR), Dose: 0, 5000, 10000 PPM IN FEED 7 D/WK FOR 104 WK (STUDY DURATION: 2 YR)) “inactive; negative”; (Species: RAT, Strain/Sex: F344/FEMALE, Route: ORAL, Dose: 0, 5000, 10000 PPM IN FEED 7 D/WK FOR 104 WK (STUDY DURATION: 2 YR), Dose: 0, 5000, 10000 PPM IN FEED 7 D/WK FOR 104 WK (STUDY DURATION: 2 YR)) “inactive; negative”; (Species: RAT, Strain/Sex: F344/MALE, Route: ORAL, Dose: 0, 5000, 10000 PPM IN FEED 7 D/WK FOR 104 WK (STUDY DURATION: 105 WK), Dose: 0, 5000, 10000 PPM IN FEED 7 D/WK FOR 104 WK (STUDY DURATION: 105 WK), Tumor Site: Type of Lesion: PITUITARY GLAND (PARS DISTALIS): ADENOMA) “equivocal”.
Turning to `COc1ccccc1N`, the carcinogen call is “active; positive” (Species: MOUSE, Strain/Sex: B6C3F1/FEMALE, Route: ORAL, Dose: 0, 2500, 5000 PPM IN DIET FOR 103 WK (STUDY DURATION: 105 WK), Dose: 0, 2500, 5000 PPM IN DIET FOR 103 WK (STUDY DURATION: 105 WK), Tumor Site: Type of Lesion: URINARY BLADDER: TRANSITIONAL CELL CARCINOMA, TRANSITIONAL CELL PAPILLOMA OR CARCINOMA); “active; positive” (Species: MOUSE, Strain/Sex: B6C3F1/MALE, Route: ORAL, Dose: 0, 2500, 5000 PPM IN DIET FOR 103 WK (STUDY DURATION: 104-105 WK), Dose: 0, 2500, 5000 PPM IN DIET FOR 103 WK (STUDY DURATION: 104-105 WK), Tumor Site: Type of Lesion: URINARY BLADDER: TRANSITIONAL CELL CARCINOMA, TRANSITIONAL CELL PAPILLOMA OR CARCINOMA); “active; positive” (Species: RAT, Strain/Sex: F344/FEMALE, Route: ORAL, Dose: 0, 5000, 10000 PPM IN DIET FOR 83-103 WK (STUDY DURATION: 83-107 WK), Dose: 0, 5000, 10000 PPM IN DIET FOR 83-103 WK (STUDY DURATION: 83-107 WK), Tumor Site: Type of Lesion: URINARY BLADDER: TRANSITIONAL CELL CARCINOMA, TRANSITIONAL CELL PAPILLOMA OR CARCINOMA); “active; positive” (Species: RAT, Strain/Sex: F344/MALE, Route: ORAL, Dose: 0, 5000, 10000 PPM IN DIET FOR 88-103 WK (STUDY DURATION: 88-106 WK), Dose: 0, 5000, 10000 PPM IN DIET FOR 88-103 WK (STUDY DURATION: 88-106 WK), Tumor Site: Type of Lesion: KIDNEY OR KIDNEY (PELVIS): TRANSITIONAL CELL CARCINOMA, URINARY BLADDER: TRANSITIONAL CELL CARCINOMA, TRANSITIONAL CELL).
For the compound `ClC[C@H]1O[C@@H]1Cl`, the carcinogen call is “active; positive” (Species: MOUSE, Strain/Sex: ICR/FEMALE, Route: DERMAL, Dose: 10 MG IN 0.1 ML ACETONE 3/WK FOR LIFE, Tumor Site: Type of Lesion: INTEGUMENTARY SYSTEM (SKIN): PAPILLOMA, SQUAMOUS CELL CARCINOMA) and “active; positive” (Species: MOUSE, Strain/Sex: ICR/FEMALE, Route: SUBCUTANEOUS, Dose: 500 UG IN 0.05 ML TRICAPRYLIN 1/WK FOR LIFE, Tumor Site: Type of Lesion: INJECTION SITE: FIBROSARCOMA).
